Laboratory results: patent US12280090B2, “Antimicrobial peptides” (priority 2018, dated 2025)
≈ marks a conversion by molar mass, not a printed value. Read-outs that look alike come from different tables or passages of the source. Ends that are not written are not given here. Peptide text beside a SMILES is read from it.

Key:
Assay type in all cases: cell-based
[1] = test system: Escherichia coli—Carbapenemase-producing organism; New-Dehli Metallobetalactamase
Experimental: (§1) Independent experiments were conducted with four strains of E. coli, including ATCC E. coli (Escherichia coli—ATCC 25922 “wild type”); ESBL E. coli (Escherichia coli—Extended spectrum beta-lactamase); CPO E. coli (KPC) (Escherichia coli—Carbapenemase-producing organism; Klebsiella pneumoniae carbapenemase); and CPO E. coli (NDM) (Escherichia coli—Carbapenemase-producing organism; New-Dehli Metallobetalactamase).
(§2) The ATCC (American Type Culture Collection) strains received from Cedarlane. Multi drug resistant (MDR) strains, as clinical isolates, were received from the laboratory of Dr. Linda Hoang.
(§3) Putative antimicrobial peptides were synthesized by GeneScript. A-list antimicrobial peptides re-synthesized by GeneScript. P2_CCH, P5_CCH, and P5_CCH_A19K were each synthesized under two conditions: standard synthesis using TFA, and the other with TFA-removal using acetate as a counter-ion. A MIC method, adapted for use with cationic antimicrobial peptides, was used to evaluate MIC antimicrobial activity (Hancock 1999).
(§4) The following data are presented to show the activity (MIC/MBC in μg/mL) of certain antimicrobial peptides described herein relative to a modified/synthetic version having a specified substitution. While data presented in tables above may be presented again, or may be represented in data provided in the tables below, such duplication is believed to assist the reader in readily noting comparisons. Different Run Numbers noted in the following tables denotes experiments conducted on different days, with each run reflecting multiple n values.

[2] = test system: Escherichia coli—Carbapenemase-producing organism; Klebsiella pneumoniae carbapenemase
Experimental: as §1, §2, §3, §4

[3] = test system: Escherichia coli—ATCC 25922 “wild type”
Experimental: as §1, §2, §3, §4

[4] = test system: Salmonella Heidelberg (MDR)
Description: as §2, §3, §4

[5] = test system: Escherichia coli—Extended spectrum beta-lactamase
Experimental: as §1, §2, §3, §4

[6] = test system: Pseudomonas aeruginosa: ATCC 10148; conditions: ATCC 10148
Experimental: (§5) Microtiter broth dilution assays. HP2, HP3, and HP5 peptides are comprised of novel sequences that have not yet been described in the AMP literature. A common method for establishing antimicrobial activity of peptides is to perform microtiter broth assays. Microtiter broth dilution methods were implemented for determination of the minimum inhibitory concentration (MIC) and minimum bactericidal concentration (MBC). HP3 and HP5 were tested in addition to Ranatuerin-1/HP4 peptide as a positive control. HP2 could not be tested because multiple peptide synthesis attempts failed. The human cathelicidin, LL-37^30 was used as an additional positive control, and an unrelated similarly sized cationic peptide from the T. pallidum protein Tp0751 was used as a negative control. The potential AMPs were tested against bacteria representative of all three types of known cell envelope (Gram-positive, negative, and the complex and unique mycobacterial cell wall/envelope), given that a major mechanism used by AMPs is cell wall/membrane targeting.
(§6) Microtiter broth dilution assays. To test for antimicrobial activity, HP3, HP4/Ranatuerin-1, and HP5, peptides were synthesized by GenScript (Piscataway, New Jersey, USA). HP2 was not tested because the service provider was unable to synthesize this peptide despite multiple attempts. An unrelated, similarly-sized peptide from the Treponema pallidum protein Tp0751^55 was used as a negative control and the human cathelicidin, LL-37^30, was included as a positive control. Peptides were dissolved in filter-sterilized ultrapure water and tested for sterility by plating on non-selective agar plates followed by a 48 h incubation at 37° C. Two-fold serial dilutions of each peptide were prepared to obtain a series corresponding to ten times the required testing concentrations (2560, 1280, 640, 320, 160, 80, 40, 20, 10, and 5 μg/mL)^29.
(§7) Microtiter broth dilution methods were implemented for determination of the minimum inhibitory concentration (MIC) and minimum bactericidal concentration (MBC) of the four putative AMPs and the negative control peptide using procedures adapted from the R.E.W. Hancock Laboratory for cationic AMPs^29 and the CLSI methods for dilution antimicrobial susceptibility tests^56.
(§8) To assess antimicrobial activity across a diverse range of bacterial species, colonies were cultured overnight on Mueller Hinton agar plates (MHA; +5% sheep blood for S. pyogenes)^56 from frozen glycerol stock. Bacteria tested include Gram-negative rods (Escherichia coli: ATCC 9723H; Pseudomonas aeruginosa: ATCC 10148), Gram-positive cocci (Staphylococcus aureus: ATCC 6538P; Streptococcus pyogenes: unknown strain, hospital isolate), and Mycobacterium smegmatis (MC^2155; classified as neither Gram-positive nor Gram-negative). Bacterial suspensions were prepared by placing 3-5 morphologically similar colonies from the grown plate into sterile glass culture tubes containing 2 mL of Mueller Hinton Broth (MHB; +5% lysed horse blood for S. pyogenes) 56. Microbial inoculums from bacterial suspensions were prepared through a spectrophotometric adjustment of turbidity to 0.08-0.1 at 600 nm to achieve a turbidity equivalent to that of a 0.5 McFarland standard (1-2×10^8 CFU/mL)^29. The standardized bacterial inoculums were then diluted in MHB to obtain final cell densities of approximately […].
(§9) Ninety-six-well microtiter plates (Fisher Cat. No. CS003790; Nepean, Ontario, Canada) were prepared with 100 μL of E. coli, P. aeruginosa, S. aureus, S. pyogenes, or M. smegmatis bacterial suspension (5×10^5 CFU/mL) dispensed into each well of columns 1 through 11. Eleven microliters of the 10×AMP dilution series for all four peptides were added to each well from column 1 (2560 μg/mL) to column 10 (5 μg/mL) in all plates. Column 11 functioned as a positive control for bacterial growth in the absence of AMPs. Column 12 in each plate contained 100 μL of MHB as a sterility control (+5% lysed horse blood for S. pyogenes)^56. […]

[7] = test system: Streptococcus pyogenes: unknown strain, hospital isolate; conditions: unknown strain, hospital isolate
Experimental: as §5, §6, §7, §8, §9

[8] = test system: Staphylococcus aureus: ATCC 6538P; conditions: ATCC 6538
Experimental: as §5, §6, §7, §8, §9

[9] = test system: Escherichia coli: ATCC 9723H; conditions: ATCC 9723
Experimental: as §5, §6, §7, §8, §9

[10] = test system: Mycobacterium smegmatis (MC^2155); conditions: Mycobacterium (MC^2155)
Experimental: as §5, §6, §7, §8, §9

Row | Compound | MIC [1] [µg/mL] | MIC [6] [µg/mL] | MIC [7] [µg/mL] | MIC [8] [µg/mL] | MIC [9] [µg/mL] | MIC [10] [µg/mL] | MBC [6] [µg/mL] | MBC [7] [µg/mL] | MBC [8] [µg/mL] | MBC [9] [µg/mL] | MBC [10] [µg/mL] | also measured
1 | CC(C)C[C@H](NC(=O)[C@H](CS)NC(=O)[C@@H]1CCCN1C(=O)[C@H](CCCCN)NC(=O)[C@H](CCCNC(=N)N)NC(=O)[C@@H]1CCCN1C(=O)[C@H](Cc1ccccc1)NC(=O)[C@H](CO)NC(=O)[C@H](CCCCN)NC(=O)[C@@H](NC(=O)[C@H](Cc1c[nH]c2ccccc12)NC(=O)[C@H](CS)NC(=O)CNC(=O)[C@H](CCCNC(=N)N)NC(=O)[C@H](CC(C)C)NC(=O)[C@@H](N)CO)[C@@H](C)O)C(=O)N[C@@H](CCCNC(=N)N)C(=O)N[C@@H](CC(N)=O)C(=O)N[C@@H](CCCNC(=N)N)C(=O)O [HP3_S3R] (H-SLRGCWTKSFPRKPCLRNR-OH; N-terminus and C-terminus assumed) | 128 (≈ 55.5 µM) | – | – | – | – | – | – | – | – | – | – | MBC [2]: 256 µg/mL (≈ 111 µM); MIC [2]: 256 µg/mL (≈ 111 µM); MIC [3]: 128 µg/mL (≈ 55.5 µM)
2 | CC[C@H](C)[C@H](NC(=O)CNC(=O)[C@@H](NC(=O)[C@@H](NC(=O)[C@H](CCCCN)NC(=O)CNC(=O)[C@@H](NC(=O)[C@H](CCCCN)NC(=O)[C@H](CCCCN)NC(=O)[C@@H](NC(=O)[C@@H](NC(=O)[C@H](CC(=O)O)NC(=O)[C@H](CC(C)C)NC(=O)[C@H](CC(C)C)NC(=O)CN)[C@@H](C)CC)[C@@H](C)CC)[C@@H](C)O)[C@@H](C)O)[C@@H](C)O)C(=O)N[C@@H](CC(C)C)C(=O)N[C@@H](CCSC)C(=O)N[C@@H](CC(=O)O)C(=O)N[C@H](C(=O)N[C@@H](CC(C)C)C(=O)N[C@@H](CCCCN)C(=O)N[C@@H](CS)C(=O)N[C@@H](CS)C(=O)N[C@@H](CCSC)C(=O)N[C@H](C(=O)NCC(=O)N[C@@H](CCCNC(=N)N)C(=O)N[C@@H](CS)C(=O)N1CCC[C@H]1C(=O)N1CCC[C@H]1C(=O)N[C@@H](CO)C(=O)N[C@@H](CO)C(=O)O)[C@@H](C)O)[C@@H](C)O [P3_CCH_D8K_Q23C] (H-GLLDIIKKTGKTTGILMDTLKCCMTGRCPPSS-OH; N-terminus and C-terminus assumed) | 128 (≈ 37.8 µM) | – | – | – | – | – | – | – | – | – | – | MIC [4]: 256 µg/mL (≈ 75.7 µM); MBC [1]: 128 µg/mL (≈ 37.8 µM); Minimum Inhibitory Concentration (MIC) ([1]; CPO E. coli NDM, Gram negative): 128+ ug/mL; Minimum Inhibitory Concentration (MIC) [5]: 64 µg/mL; Minimum Inhibitory Concentration (MIC) [2]: 64 to 128 µg/mL; MBC [3]: 64 µg/mL (≈ 18.9 µM); MIC [3]: 64 µg/mL (≈ 18.9 µM); Minimum Inhibitory Concentration (MIC) [3]: 64 µg/mL
3 | CC[C@H](C)[C@H](NC(=O)[C@H](CCCCN)NC(=O)[C@@H](NC(=O)[C@H](C)NC(=O)[C@H](Cc1ccccc1)NC(=O)[C@H](CC(=O)O)NC(=O)[C@H](CCCCN)NC(=O)CNC(=O)[C@@H](NC(=O)[C@@H](NC(=O)[C@H](CCCCN)NC(=O)[C@@H](NC(=O)[C@@H](NC(=O)[C@H](CC(=O)O)NC(=O)[C@H](CC(C)C)NC(=O)[C@H](CC(C)C)NC(=O)CN)[C@@H](C)CC)[C@@H](C)CC)[C@@H](C)O)[C@@H](C)O)C(C)C)C(=O)N[C@@H](CC(C)C)C(=O)N[C@@H](CC(=O)O)C(=O)N[C@@H](CC(N)=O)C(=O)N[C@@H](CC(C)C)C(=O)N[C@@H](CCCCN)C(=O)N[C@@H](CS)C(=O)N[C@@H](CCCCN)C(=O)N[C@@H](CC(C)C)C(=O)N[C@@H](C)C(=O)NCC(=O)NCC(=O)N[C@@H](CS)C(=O)N1CCC[C@H]1C(=O)N1CCC[C@H]1C(=O)O [Peptide P4_CCH] (H-GLLDIIKTTGKDFAVKILDNLKCKLAGGCPP-OH; N-terminus and C-terminus assumed) | – | >256 | 256 (≈ 78.9 µM) | >256 | 128 (≈ 39.5 µM) | 8 (≈ 2.47 µM) | >256 | 256 (≈ 78.9 µM) | >256 | 128 (≈ 39.5 µM) | >256 | MIC [4]: 256 µg/mL (≈ 78.9 µM); Minimum Inhibitory Concentration (MIC) [1]: 64 to 128 µg/mL; Minimum Inhibitory Concentration (MIC) [5]: 64 µg/mL; MBC [2]: 64 µg/mL (≈ 19.7 µM); MIC [2]: 32 µg/mL (≈ 9.87 µM); Minimum Inhibitory Concentration (MIC) [2]: 32 µg/mL; Minimum Inhibitory Concentration (MIC) [3]: 32 to 64 µg/mL
4 | CC[C@H](C)[C@H](NC(=O)[C@H](C)NC(=O)[C@@H]1CCCN1C(=O)[C@@H](N)Cc1ccccc1)C(=O)N[C@H](C(=O)N[C@@H](CS)C(=O)N[C@@H](CCCCN)C(=O)N[C@H](C(=O)N[C@@H](CO)C(=O)N[C@@H](CCCCN)C(=O)N[C@@H](CCCCN)C(=O)N[C@@H](CS)C(=O)O)C(C)C)[C@@H](C)CC [Peptide P8_CCH_N11K, FPAIICKVSKKC] (H-FPAIICKVSKKC-OH; N-terminus and C-terminus assumed) | 128 (≈ 95.8 µM) | – | – | – | – | – | – | – | – | – | – | MBC [1]: 128 µg/mL (≈ 95.8 µM); MBC [5]: 128 µg/mL (≈ 95.8 µM); MIC [5]: 128 µg/mL (≈ 95.8 µM)
5 | ATAWRIPPPGMQPIIPIRIRPLCGKQ [Peptide P7_CCH] | 256 | >256 | >256 | >256 | >256 | 32 | >256 | >256 | >256 | >256 | >256 | –

Further lines, with some results ahead:

Row | MIC [1] [µg/mL] | MIC [6] [µg/mL] | MIC [7] [µg/mL] | MIC [8] [µg/mL] | MIC [9] [µg/mL] | MIC [10] [µg/mL] | Compound | MBC [6] [µg/mL] | MBC [7] [µg/mL] | MBC [8] [µg/mL] | MBC [9] [µg/mL] | MBC [10] [µg/mL] | also measured
6 | – | >256 | >256 | >256 | >256 | >256 | LRCPTPHYNFENGIGNHLMWNIIWLNAQQMSYKNK [Peptide P15_CCH] | >256 | >256 | >256 | >256 | >256 | –
7 | – | >256 | >256 | >256 | >256 | >256 | SNRDFFKVNIFRLCG [Peptide P10_CCH, SNRDFFKVNIFRLCG] | >256 | >256 | >256 | >256 | >256 | –
8 | – | >256 | >256 | >256 | >256 | >256 | SNRDFFMVNIFGLCGPFGIMERKRR [Peptide P16_CCH] | – | – | – | – | – | –
